Data reported in patent publication US20070186288A1, “Zebrafish models of acute myelogenous leukemia” (priority 2005, published 2007).
Entries after “also recorded” stand apart in the source; their conditions may differ. Read-outs that look alike come from different tables or passages of the source.

What was measured:
[1] = system: AML1-ETO phenotype in Tg(hsp:AML1-ETO) zebrafish embryos; type: in vivo; conditions: for percentage of AML1-ETO-expressing embryos without circulating blood: 500 μM morpholino solution injected into 1-cell stage embryos, heat treated at 4, 16, 24 hpf, scored at 44 hpf, non-injected control 90.2%
Experimental: The Petri dishes containing zebrafish embryos were transferred from the growth temperature of 23-28.5° C. to a 37-42° C. incubator and incubated for 1 hour before returning them back to the normal temperature. The heat treatment may be repeated three to four times over 12-hour intervals as specified below. The percentages of embryos with phenotype were scored by visual inspection of the loss of circulating blood in the embryos after 40 hpf.
The morpholino antisense oligonucleotides hAML1-MO (5′-[…]; SEQ ID NO:3), which targets the translation start codon of human AML1, and zTIS11b-MO (5′-[…]; SEQ ID NO:4), which targets the splice donor site of zebrafish TIS11b transcripts, were obtained from Gene-Tools, LLC. For microinjection, 500 μM hAML1-MO or 200 μM zTIS11b-MO in 0.3× Danieau's buffer (17 mM NaCl, 2 mM KCl, 0.12 mM MgSO4, 1.8 mM Ca(NO3)2 and 1.5 mM HEPES, pH 7.6) were prepared and injected as described (Nasevicius et al., Nat. Genet. 26:216-220, 2000).
In AML1-ETO-expressing fish, the absence of circulating cells and the accumulation of non-circulating hematopoietic cells in the ICM are readily detected by eye. Therefore, circulation may be a simple surrogate phenotype for detecting the presence or absence of the AML1-ETO phenotype. To confirm that the loss-of-circulation phenotype is dependent on the inducible expression of AML1-ETO in the transgenic zebrafish, we tested whether this phenotype can be rescued by blocking AML1-ETO expression using an antisense morpholino oligonucleotide (hAML1-MO) complementary to the translation start site of the human AML1-ETO mRNA. Homogeneous transgenic embryo clutches were obtained from crosses between homozygous Tg(hsp:AML1-ETO) and wild-type fish. These embryos were heat treated at 4, 16, and 24 hpf, and were then scored at 44 hpf. […] On the other hand, in the heat-treated Tg(hsp:AML1-ETO) fish embryos, most of the blood cells accumulate in the ICM, especially at the location close to the end of the yolk extension, and fail to enter circulation. However, injection of HAML1-MO into 1-cell stage embryos restores the circulation in the transgenic embryos.
Zebrafish embryos readily absorb small molecules from the surrounding medium, rendering them a powerful tool to assess pharmacological efficacy (Peterson et al., Methods Cell. Biol. 76:569-591, 2004; Zon et al., Nat. Rev. Drug Discov. 4:35-44, 2005). […] While ATRA is generally not very effective in differentiating t(8;21) leukemic cells, complete remission of a patient with t(8;21) translocation has been reported (Chen et al., Chin. Med. J. (Engl). 115:58-61, 2002). We tested the efficacy of ATRA in reversing the zebrafish AML1-ETO phenotype. In this experiment, we heat-shocked the embryos three times instead of four times at 37° C. in order to reduce the phenotypic penetrance in the Tg(hsp:AML1-ETO) fish embryos to around 80%. Meanwhile, ATRA was added at 24 hpf.
The upregulation of TIS11b had been hypothesized to contribute to AML pathogenesis, but this hypothesis had not been tested. To elucidate the role of TIS11b in the AML1-ETO phenotype, we knocked down TIS11b by injecting an antisense morpholino oligonucleotide complementary to the […] of the zebrafish TIS11b gene (zTIS11b-MO).

[2] = system: hematopoietic cells of Tg(hsp:AML1-ETO) zebrafish embryos; test: Cytology (Wright-Giemsa) of blood extracted from Tg(hsp:AML1-ETO) embryos; type: in vivo; conditions: 200 μM morpholino solution injected; mild heat treatment
Source text: Blood cells were collected from anesthetized wild-type and AML1-ETO embryos at 40 hpf by transferring live fish to phosphate buffered saline containing 50 U/ml heparin, 1% bovine serum albumin, and 0.006% tricaine. Tails were excised posterior to the yolk extension (at approximately the site of the posterior ICM) using a scalpel. Blood cells were extruded from the site of excision using the blunt edge of the scalpel and collected using a micropipette.
For cytological analyses, blood cells collected from the zebrafish embryos were transferred onto glass slides by cytospin and stained by Protocol® Wright-Giemsa stain (Fisher Diagnostics) following manufacturer's instruction. To label red blood cells in the zebrafish embryos, whole-mount cytochemistry staining with […] was performed as previously described (Weinstein et al., Development 123:303-309, 1996).

`CC1=C(/C=C/C(C)=C/C=C/C(C)=C/C(=O)O)C(C)(C)CCC1` [ATRA, all-trans retinoic acid] was tested, and the “percentage of embryos possessing circulation” value ([1]; 10 pM added at 24 hpf, three 1-hour 37° C. heat treatments at 4, 16, 24 hpf, scored at 40 hpf, vehicle 20%, p=0.0085) was 36% and the “degree of rescue at higher concentrations” value ([1]; concentrations above 10 pM (range tested 1 pM to 1 nM)) was “did not increase”.

“hAML1-MO: morpholino antisense oligonucleotide 5′-CTGGCATCTACGGGGATACGCATCA (SEQ ID NO:3), targets the translation start codon of human AML1 (all phosphorodiamidate morpholino (PMO); listed as Homo sapiens)” was tested, and the “percentage of AML1-ETO-expressing embryos without circulating blood” value [1] was “less than 10%” and the “percentage of AML1-ETO-expressing embryos without circulating blood” value ([1]; listed as HAML1-MO) was 6.7%.

For “zTIS11b-MO: morpholino antisense oligonucleotide 5′-ACTTTTCTCCATACCTTGTTGTTGA (SEQ ID NO:4), targets the splice donor site of zebrafish TIS11b transcripts (all phosphorodiamidate morpholino (PMO))”, the “blast cells in blood of injected Tg(hsp:AML1-ETO) embryos by cytological analysis” value [2] was “accumulation of hematopoietic blast cells; also recorded: abundant immature blast-like cells” and the “percentage of injected Tg(hsp:AML1-ETO) embryos exhibiting the AML1-ETO (lack of circulation) phenotype” value ([1]; 200 μM morpholino solution injected, mild heat treatment, uninjected less than 30%) was 98%.
